Data reported in PMC8963580, “Biophysical methods in early drug discovery” (ADMET & DMPK, 2019).

What was measured:
[1] = molecular target: T1, 15N-labeled NAD binding domain of PHGDH (Homo sapiens, UniProt O43175); experiment: 2D NMR binding assay (1H15N-TROSY-HSQC chemical shift titration); settings: read-out: Kd (chemical shift change versus compound concentration)
T1 sequence (O43175 93-298 limits assumed): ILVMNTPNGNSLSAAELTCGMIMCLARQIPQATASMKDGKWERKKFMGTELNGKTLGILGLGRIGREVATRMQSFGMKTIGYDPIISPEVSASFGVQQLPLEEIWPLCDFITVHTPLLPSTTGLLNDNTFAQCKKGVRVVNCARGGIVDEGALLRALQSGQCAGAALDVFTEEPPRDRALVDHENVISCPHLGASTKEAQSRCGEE
Source text: The enzyme 3-phosphohydroxyglycerate dehydrogenase (PHGDH) utilises oxidised ninotinamide dinucleotide (NAD+) and catalyses the conversion of 3-phosphohydroxyglycerate to 3-phosphohydroxypyruvate in humans. The conversion of 3-phosphohydroxyglycerate to 3-phosphohydroxypyruvate is the first, and rate-limiting step, in synthesis of the amino acid serine. Studies have linked PHGDH to the in vivo tumourigenesis in aggressive breast tumours and functional genomics reveal that the serine synthesis pathway is essential in breast cancer. Thus, the druggability of the target was explored with small molecules. To this end a fragment screen of 384 fragments was undertaken using crystal cocktail soaking (mixtures of 4) against the NAD binding domain of PHGDH and 34 hits were identified. The binding affinities of these hits were determined in a 2D NMR binding assay using 15N-labeled NAD binding domain, Figure 6a. […] A simple analogue of an initial crystallography hit (compound 1), the 5-fluoroindole-2-carboxamide (compound 2) bound at a resolution of 1.95 Å in the adenine pocket of the NAD binding site (Figure 6b). The indole NH forms a water-bridged hydrogen bond network with Ser-211, and the 5-fluoro substituent fits nicely into a lipophilic cleft in the binding pocket. […]

[2] = molecular target: T2, PHGDH (Homo sapiens, UniProt O43175); experiment: Affinity for PHGDH during fragment optimisation (method not given); assay type: binding
T2 sequence (O43175 1-533): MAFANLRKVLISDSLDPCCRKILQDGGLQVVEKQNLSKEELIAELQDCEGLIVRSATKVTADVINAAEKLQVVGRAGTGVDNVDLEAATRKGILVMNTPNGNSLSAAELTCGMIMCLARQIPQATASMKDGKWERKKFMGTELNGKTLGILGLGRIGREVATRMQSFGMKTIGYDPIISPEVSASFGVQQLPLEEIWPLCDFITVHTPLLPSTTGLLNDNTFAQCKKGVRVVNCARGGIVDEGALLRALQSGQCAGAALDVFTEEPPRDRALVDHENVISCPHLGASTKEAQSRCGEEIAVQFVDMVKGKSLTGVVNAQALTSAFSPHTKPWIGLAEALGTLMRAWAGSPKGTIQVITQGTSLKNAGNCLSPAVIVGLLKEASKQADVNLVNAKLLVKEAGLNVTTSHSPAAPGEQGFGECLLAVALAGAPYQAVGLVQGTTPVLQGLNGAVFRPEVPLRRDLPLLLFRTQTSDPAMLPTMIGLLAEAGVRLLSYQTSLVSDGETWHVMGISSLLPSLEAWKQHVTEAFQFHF
Source text: The enzyme 3-phosphohydroxyglycerate dehydrogenase (PHGDH) utilises oxidised ninotinamide dinucleotide (NAD+) and catalyses the conversion of 3-phosphohydroxyglycerate to 3-phosphohydroxypyruvate in humans. The conversion of 3-phosphohydroxyglycerate to 3-phosphohydroxypyruvate is the first, and rate-limiting step, in synthesis of the amino acid serine. Studies have linked PHGDH to the in vivo tumourigenesis in aggressive breast tumours and functional genomics reveal that the serine synthesis pathway is essential in breast cancer. Thus, the druggability of the target was explored with small molecules. […] The binding affinities of these hits were determined in a 2D NMR binding assay using 15N-labeled NAD binding domain, Figure 6a. […]
Considering this knowledge, a 1D NMR competition assay with NAD+ as the reference compound was developed. […] It is noteworthy that fragments and many of the synthesised analogues had no measurable activity in the human PHGDH protein NAD fluorescence intensity biochemical assay. Whilst the biophysical methods allowed a wide dynamic range of weak mM to sub μM affinities be determined, the biochemical assay could only be used to provide affinities that could drive SAR once those affinities were sub micromolar. […]

[3] = molecular target: InhA.NAD+ (Mycobacterium tuberculosis, UniProt P9WGR1); experiment: SPR profiling of DEL screening hits, in the presence of 2 mM NAD+; assay type: binding
Sequence of InhA.NAD+ (P9WGR1 whole entry, looked up): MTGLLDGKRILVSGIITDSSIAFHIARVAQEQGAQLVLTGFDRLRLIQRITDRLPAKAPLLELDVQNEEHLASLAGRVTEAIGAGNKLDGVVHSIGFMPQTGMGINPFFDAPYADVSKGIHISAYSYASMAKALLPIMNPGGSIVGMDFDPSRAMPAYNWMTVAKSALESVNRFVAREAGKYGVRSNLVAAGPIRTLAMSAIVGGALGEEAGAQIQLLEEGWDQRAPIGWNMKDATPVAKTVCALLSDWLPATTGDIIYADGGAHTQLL

[4] = molecular target: Apo InhA (Mycobacterium tuberculosis, UniProt P9WGR1); experiment: SPR profiling of DEL screening hits, compound injected alone; assay type: binding
Sequence of Apo InhA (P9WGR1 whole entry, looked up): as above

[5] = molecular target: InhA.NADH (Mycobacterium tuberculosis, UniProt P9WGR1); experiment: SPR profiling of DEL screening hits, in the presence of 100 μM NADH; assay type: binding
Sequence of InhA.NADH (P9WGR1 whole entry, looked up): as above

[6] = molecular target: T3, full length PHGDH (Homo sapiens, UniProt O43175); experiment: ITC titration; assay type: binding
T3 sequence (O43175 1-533): T2 sequence (O43175 1-533)

[7] = molecular target: T3, full length PHGDH; experiment: SPR titration, steady state fit; assay type: binding
Source text: Considering this knowledge, a 1D NMR competition assay with NAD+ as the reference compound was developed. This screen employed the more physiologically relevant full length PHGDH protein, to provide continuity for affinity measurement during the subsequent analoguing phase. It is noteworthy that fragments and many of the synthesised analogues had no measurable activity in the human PHGDH protein NAD fluorescence intensity biochemical assay. Whilst the biophysical methods allowed a wide dynamic range of weak mM to sub μM affinities be determined, the biochemical assay could only be used to provide affinities that could drive SAR once those affinities were sub micromolar. In summary, a fragment crystal cocktail screen, supported with biophysical affinity measurements, provided the first known small molecule known nanomolar inhibitors of PHGDH and valuable tools for interrogating the biology of this target.
(b) SPR titration data for NADH binding to full length PHGDH, Kd = 0.4 ± 0.03 μM determined from a steady state fit, with the kinetic fit curve shown in the inset. […] No label is printed directly beside the Kd values; 'Spot 1' and 'Spot 2' are printed at the top of the plots.

[8] = molecular target: T4, NAD binding domain of PHGDH (Homo sapiens, UniProt O43175); experiment: SPR titration, steady state fit
T4 sequence (O43175 93-298 limits assumed): T1 sequence (O43175 93-298 limits assumed)

SMILES	Kd [3]	Kd [4]	Kd [5]	other results
NC(=O)c1cc2cc(F)ccc2[nH]1 [Compound 2, 5-fluoroindole-2-carboxamide]				Kd [1]: 980 ± 60 µM
COc1cc2[nH]c(C(=O)N[C@H](CO)c3ccccc3)cc2cc1Cl [Compound 4]				affinity ([2]; method not stated): single digit
O=C(O)c1ccc([C@@H](CO)NC(=O)c2cc3cc(Cl)ccc3[nH]2)cc1 [Compound 5]				fold improvement in affinity ([2]; relative to compound 4): 10 fold
Cc1c(CC(=O)NC2CCC(CC(=O)N3CCN(CC(=O)CN)C(=O)C3Cc3ccccc3)CC2)sc2ccccc12 (centres unmarked) [Compound 6]	13.4 ± 4.3 µM	> 100 µM	0.3 ± 0.2 µM	
CNC(=O)CN(Cc1ccc(C)cc1)C(=O)C[C@H]1CC[C@H](CC(=O)c2nnn(Cc3ccccc3)c2C)CC1 [Compound 7]	46.7 ± 11.6 µM	> 100 µM	0.09 ± 0.06 µM	
CNC(=O)c1cnc(NC2CCN(c3ccccn3)CC2)c(NCc2ccc(F)c(Oc3ccccc3)c2)c1 [Compound 8]	> 100 µM	> 100 µM	0.3 ± 0.1 µM	
CNC(=O)CN(C(=O)Cc1ccc(-n2cccn2)cc1)C1CCN(c2ccccn2)CC1 [Compound 9]	> 100 µM	> 100 µM	36.8 ± 3.3 µM	
CNC(=O)C1CC(NC(=O)C(NC(=O)c2ccc(Cn3cccn3)cc2)[C@@H](C)OC(C)(C)C)CN1C(=O)c1ccccc1 (some centres unmarked) [Compound 10]	49 ± 2.9 µM	> 100 µM	0.06 ± 0.03 µM	
CCCc1cc(C(=O)N2CCC(C(=O)NC(CC(=O)NC)c3cccc(C(F)(F)F)c3)(c3ccc(Br)cc3)CC2)n(C)n1 (centres unmarked) [Compound 11]	0.3 ± 0.1 µM	12.4 ± 1.4 µM	5 ± 1.2 µM	
CNC(=O)C1CCCN1C(=O)CC1CCC(NC(=O)C2CC(c3ccccc3)CN2)CC1 (centres unmarked) [Compound 12]	> 100 µM	> 100 µM	6.3 ± 2.6 µM	
NC(=O)C1=CN([C@@H]2O[C@H](COP(=O)(O)OP(=O)(O)OC[C@H]3O[C@@H](n4cnc5c(N)ncnc54)[C@H](O)[C@@H]3O)[C@@H](O)[C@H]2O)C=CC1 [NADH]				Kd [6]: 0.33 ± 0.08 µM; N (stoichiometry) [6]: 0.78 ± 0.01; Kd ([7]; SPR steady state fit, full length PHGDH): 0.4 ± 0.03 µM; fold tighter binding to the full-length protein than to the NAD binding domain ([7]; combination of ITC and SPR measurements): approximately 20 fold; Kd [8]: 6.7 ± 0.5 µM
